Experimental data reported in publication PMC7801734, “Discovery of a new molecule inducing melanoma cell death: dual AMPK/MELK targeting for novel melanoma therapies” (Cell Death & Disease, 2021).

Legend:
Type in all cases: biochemical
AKT2 (PKB beta) = AKT2 (PKB beta) (Homo sapiens, UniProt P31751); test: Z'-LYTE kinome assay at […], n = […]; conditions: read-out: CRO15 1 μM
GSK3B (GSK3 beta) = GSK3B (GSK3 beta) (Homo sapiens, UniProt P49841); test: Z'-LYTE kinome assay at […] (ATP Km app), n = […]; conditions: read-out: CRO15 1 μM
MAPKAPK2 = MAPKAPK2 (Homo sapiens, UniProt P49137); test: Z'-LYTE kinome assay at […] (ATP Km app), n = […]; conditions: read-out: CRO15 1 μM
[1] = target: T1, MELK (maternal embryonic leucine zipper kinase) (Homo sapiens, UniProt Q14680); test: Z'-LYTE kinome assay at […] (ATP Km app); ADP-Glo dose-response with recombinant MELK; supported by biotin-CRO15 pull-down
T1 construct: recombinant MELK protein
T1 sequence (Q14680 whole entry): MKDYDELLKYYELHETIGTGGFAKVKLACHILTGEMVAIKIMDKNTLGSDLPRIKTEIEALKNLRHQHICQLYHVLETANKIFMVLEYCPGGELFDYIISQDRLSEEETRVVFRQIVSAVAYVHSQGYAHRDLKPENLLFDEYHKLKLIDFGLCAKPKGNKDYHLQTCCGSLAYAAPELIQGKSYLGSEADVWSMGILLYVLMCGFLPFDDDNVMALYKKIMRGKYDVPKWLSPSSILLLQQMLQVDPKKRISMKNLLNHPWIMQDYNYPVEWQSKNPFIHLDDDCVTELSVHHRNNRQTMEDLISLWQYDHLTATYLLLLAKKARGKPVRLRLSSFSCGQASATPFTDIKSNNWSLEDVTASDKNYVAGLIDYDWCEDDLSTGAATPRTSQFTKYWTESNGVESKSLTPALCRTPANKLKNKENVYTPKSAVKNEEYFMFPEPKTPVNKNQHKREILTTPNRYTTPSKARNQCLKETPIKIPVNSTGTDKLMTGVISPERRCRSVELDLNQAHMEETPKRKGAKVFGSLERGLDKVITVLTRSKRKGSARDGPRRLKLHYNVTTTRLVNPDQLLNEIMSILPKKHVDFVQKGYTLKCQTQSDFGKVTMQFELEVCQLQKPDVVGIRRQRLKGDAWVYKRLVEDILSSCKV

GSK3B (GSK3 beta), sequence (P49841 whole entry): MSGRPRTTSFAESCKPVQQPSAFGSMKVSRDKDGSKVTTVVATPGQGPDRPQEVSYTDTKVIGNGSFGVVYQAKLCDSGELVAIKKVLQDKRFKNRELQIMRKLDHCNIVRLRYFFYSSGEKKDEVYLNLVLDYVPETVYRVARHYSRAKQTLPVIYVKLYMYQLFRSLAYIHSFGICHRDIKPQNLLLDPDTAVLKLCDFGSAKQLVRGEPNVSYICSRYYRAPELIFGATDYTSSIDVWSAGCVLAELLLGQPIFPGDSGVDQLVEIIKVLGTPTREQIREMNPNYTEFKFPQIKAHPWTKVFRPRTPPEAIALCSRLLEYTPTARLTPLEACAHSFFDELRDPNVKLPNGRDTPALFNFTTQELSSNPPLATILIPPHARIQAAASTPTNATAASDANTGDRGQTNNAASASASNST
AKT2 (PKB beta), sequence (P31751 whole entry): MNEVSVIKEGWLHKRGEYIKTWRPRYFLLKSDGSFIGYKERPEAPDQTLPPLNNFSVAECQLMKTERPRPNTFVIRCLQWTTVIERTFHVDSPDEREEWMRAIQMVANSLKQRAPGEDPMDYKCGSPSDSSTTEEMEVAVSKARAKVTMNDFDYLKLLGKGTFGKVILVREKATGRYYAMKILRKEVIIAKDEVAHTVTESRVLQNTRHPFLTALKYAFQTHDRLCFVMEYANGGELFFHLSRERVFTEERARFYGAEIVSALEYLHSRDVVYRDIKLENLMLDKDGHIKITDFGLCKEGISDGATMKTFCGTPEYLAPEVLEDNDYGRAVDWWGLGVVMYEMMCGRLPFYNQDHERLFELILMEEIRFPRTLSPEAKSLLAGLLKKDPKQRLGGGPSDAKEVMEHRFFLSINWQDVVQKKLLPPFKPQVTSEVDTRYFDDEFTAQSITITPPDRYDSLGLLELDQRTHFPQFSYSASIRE
MAPKAPK2, sequence (P49137 whole entry): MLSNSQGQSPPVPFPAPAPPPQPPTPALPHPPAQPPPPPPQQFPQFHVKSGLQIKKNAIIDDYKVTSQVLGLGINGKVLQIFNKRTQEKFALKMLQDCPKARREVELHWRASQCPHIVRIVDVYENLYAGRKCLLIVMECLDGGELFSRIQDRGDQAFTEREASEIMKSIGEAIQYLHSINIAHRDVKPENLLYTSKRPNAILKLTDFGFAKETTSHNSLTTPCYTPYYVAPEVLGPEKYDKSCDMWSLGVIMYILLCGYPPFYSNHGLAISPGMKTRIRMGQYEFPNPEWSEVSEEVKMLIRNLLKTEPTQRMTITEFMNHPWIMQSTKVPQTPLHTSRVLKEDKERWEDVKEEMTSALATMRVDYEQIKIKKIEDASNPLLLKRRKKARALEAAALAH

- inhibition at 1 µM (AKT2 (PKB beta)): 74%
- inhibition at 1 µM (GSK3B (GSK3 beta)): 72%
- inhibition at 1 µM (MAPKAPK2): 90%
- inhibition at 1 µM [1]: 72%
Structure (SMILES): Nc1nc(Nc2ccccc2SSc2ccccc2Nc2nc(N)nc(C(Cl)(Cl)Cl)n2)nc(C(Cl)(Cl)Cl)n1 [CRO15]
